Measurements reported in ChEMBL document CHEMBL5058641, “Data for DCP probe TP-050” (2022).

What was measured:
Conditions in all cases: Compound concentration 10.0 uM
[1] = biological target: 5-hydroxytryptamine receptor 2B (Homo sapiens, UniProt P41595)
[2] = biological target: Alpha-2B adrenergic receptor (Homo sapiens) (UniProt P18089)
[3] = biological target: Muscarinic acetylcholine receptor M3 (Homo sapiens, UniProt P20309)

Measured: inhibition

Sequence of 5-hydroxytryptamine receptor 2B (P41595 whole entry): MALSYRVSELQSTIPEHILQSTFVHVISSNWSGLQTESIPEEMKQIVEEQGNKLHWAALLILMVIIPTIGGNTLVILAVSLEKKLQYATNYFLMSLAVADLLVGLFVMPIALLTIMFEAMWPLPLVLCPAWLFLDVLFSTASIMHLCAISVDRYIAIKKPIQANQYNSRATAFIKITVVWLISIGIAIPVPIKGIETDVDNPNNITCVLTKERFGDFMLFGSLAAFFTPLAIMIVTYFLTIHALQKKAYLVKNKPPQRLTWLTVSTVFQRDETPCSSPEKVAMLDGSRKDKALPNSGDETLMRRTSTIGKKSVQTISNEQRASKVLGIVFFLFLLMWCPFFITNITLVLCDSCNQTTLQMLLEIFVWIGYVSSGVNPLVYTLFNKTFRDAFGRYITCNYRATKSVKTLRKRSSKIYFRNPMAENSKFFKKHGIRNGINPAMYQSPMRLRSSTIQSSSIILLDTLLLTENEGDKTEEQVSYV
Sequence of Alpha-2B adrenergic receptor (Homo sapiens) (P18089 whole entry): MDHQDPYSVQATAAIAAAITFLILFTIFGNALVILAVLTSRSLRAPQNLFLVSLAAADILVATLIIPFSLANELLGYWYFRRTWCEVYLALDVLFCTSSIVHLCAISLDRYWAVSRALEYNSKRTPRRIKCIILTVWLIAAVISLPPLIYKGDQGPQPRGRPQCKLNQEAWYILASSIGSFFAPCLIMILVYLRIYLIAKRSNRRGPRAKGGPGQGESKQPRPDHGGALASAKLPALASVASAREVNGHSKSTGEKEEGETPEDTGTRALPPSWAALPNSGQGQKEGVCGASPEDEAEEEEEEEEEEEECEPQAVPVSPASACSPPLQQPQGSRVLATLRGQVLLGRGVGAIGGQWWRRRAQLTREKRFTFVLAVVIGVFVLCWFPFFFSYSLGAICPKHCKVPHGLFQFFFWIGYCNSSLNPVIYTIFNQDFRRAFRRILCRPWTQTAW
Sequence of Muscarinic acetylcholine receptor M3 (P20309 whole entry, looked up): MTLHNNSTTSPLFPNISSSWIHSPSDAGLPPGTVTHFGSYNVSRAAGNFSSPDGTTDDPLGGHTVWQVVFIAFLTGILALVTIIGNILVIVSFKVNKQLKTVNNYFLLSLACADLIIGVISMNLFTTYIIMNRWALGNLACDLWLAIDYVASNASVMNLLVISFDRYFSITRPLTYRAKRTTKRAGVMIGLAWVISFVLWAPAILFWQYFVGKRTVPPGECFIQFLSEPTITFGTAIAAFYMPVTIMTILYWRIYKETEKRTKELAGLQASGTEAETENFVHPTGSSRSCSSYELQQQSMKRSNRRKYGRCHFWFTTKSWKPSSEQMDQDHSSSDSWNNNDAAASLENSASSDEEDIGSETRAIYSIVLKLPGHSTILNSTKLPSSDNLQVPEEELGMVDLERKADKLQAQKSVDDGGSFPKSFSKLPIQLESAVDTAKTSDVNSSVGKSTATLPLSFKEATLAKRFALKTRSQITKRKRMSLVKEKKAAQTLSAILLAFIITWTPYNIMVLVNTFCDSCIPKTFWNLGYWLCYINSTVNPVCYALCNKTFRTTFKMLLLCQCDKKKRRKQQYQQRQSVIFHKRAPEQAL

Cc1cn([C@H](C)CC#N)c(=O)c2cc(Cn3nc(C(F)F)cc3Cl)nn12
inactive: [1] 42.7% | [2] 6.16% | [3] 11.9%
